Test results: publication PMC8399565, “Fluorescence Cross-Correlation Spectroscopy Yields True Affinity and Binding Kinetics of Plasmodium Lactate Transport Inhibitors” (Pharmaceuticals, 2021)
“Also recorded” adds a separate entry of the source. Like-named read-outs stand apart in the source and are kept apart here.

Legend:
PfFNT-GFP = target: T1, PfFNT-GFP (Plasmodium falciparum, UniProt O77389); experiment: Live cell confocal imaging, co-localization with PfFNT-GFP in HEK293 cells; assay type: cell-based; details: for co-localization / membrane localization: probe after 0.05% Triton X-100 permeabilization, 0.5-5 min
T1 construct: The DNA of full-length PfFNT from Plasmodium falciparum 3D7 was cloned as a C-terminal GFP fusion; expressed in transfected cells; intact cells for imaging, LMNG-solubilized membranes or lysates for FCCS
Method: BH296-DY647 was added at a concentration of 50 nM to cultured HEK cells stably expressing PfFNT-GFP to test for co-localization of the compound with the target at the plasma membrane by confocal imaging. […] As the cytoplasmic domain of the transporter is inaccessible for the compound, we next explored possibilities to permeabilize the plasma membrane and to retain cell viability for the time of incubation. For this, we used Triton X-100 at a final concentration of 0.05%, as described previously to allow for diffusion of compounds into the cell. […] A prolonged incubation was impeded by incipient cell disintegration and membrane blebbing. We next set out to test the specificity of binding by analyzing the interaction of labeled BH296 with its unlabeled parental compound.
(§1) The confocal laser scanning microscopy was performed on an LSM 510 confocal microscope connected to an Axiovert 200M equipped with a C-Apochromat 40×/1.2 W water immersion objective (Carl Zeiss, Germany). The red fluorophore (Dy-647) was excited using a 633 nm helium–neon laser, whereas the green fluorophore (GFP) was excited using a 488 nm argon-ion laser.

PfFNT G107S-GFP = target: T2, PfFNT G107S-GFP (Plasmodium falciparum, UniProt O77389, G107S); experiment: Live cell confocal imaging, co-localization with PfFNT G107S-GFP in HEK293 cells; assay type: cell-based; details: for co-localization / membrane localization: 50 nM probe, 0.05% Triton X-100; for competition of BH267.meta-DY647 membrane localization by unlabeled compound: 100 µM unlabeled compound
T2 construct: The DNA of full-length PfFNT from Plasmodium falciparum 3D7 was cloned as a C-terminal GFP fusion; expressed in transfected cells; intact cells for imaging, LMNG-solubilized membranes for FCCS
From the text: A PfFNT G107S mutant generated by sublethal dosing of BH296 in vitro parasite cultures has gained attention as it confers resistance against BH296, but the introduction of a scaffold nitrogen atom (BH267.meta; Figure 1) restored the effectiveness of the inhibitor [11]. The G107S mutation site is located at the cytoplasmic entrance of PfFNT and narrows the transport path precluding the binding of BH296 via sterical hinderance of the phenyl moiety of the compound. Exchange of the carbon atom in the meta-position of the aromatic ring of BH296 for a nitrogen atom introduced a hydrogen bond acceptor site for the serine hydroxyl of the resistance mutation and restored binding to the mutant PfFNT G107S. We analyzed the interaction of BH267.meta by cellular imaging. For this, we generated labeled BH267.meta-DY647 (Figure 1), expressed PfFNT G107S in HEK cells, and incubated the cells with BH296-DY647 or BH 267.meta-DY647 after treatment with 0.05% Triton X-100.
Whether these differences in signal intensity can be attributed to different affinities, to expression levels of the target protein, or to the cellular localization cannot be concluded from imaging-based experiments but requires biophysical analytical methods. However, the observation confirms previous findings that show the activity of BH267.meta on PfFNT G107S.
as §1

PfFNT wt-GFP = target: T3, PfFNT wt-GFP (Plasmodium falciparum, UniProt O77389); experiment: FCCS equilibrium competition binding, PfFNT wildtype; details: for complex formed in the absence of a competitor: 70 nM tracer; for Ki: Cheng Prusoff
T3 construct: The DNA of full-length PfFNT from Plasmodium falciparum 3D7 was cloned as a C-terminal GFP fusion; expressed in transfected cells; intact cells for imaging, LMNG-solubilized membranes or lysates for FCCS
Method: To analyze the binding properties of unlabeled inhibitors BH296 and […], we determined their inhibition constants (Ki) in equilibrium competition binding assays. For this, we first incubated membrane preparations comprising 10 nM of PfFNT wildtype with labeled BH296 at a concentration of 70 nM. The interaction was then competed with increasing amounts of unlabeled parental compounds BH296 and BH267.meta within a concentration range of 10 pM and 10 µM. The concentration of formed complex between PfFNT-GFP and BH296-DY647 relates to the values observed in the saturation binding assays. […] The corresponding Ki values were then calculated employing the Cheng Prusoff equation [17].
In view of the differences in complex formation of both tracers, we were also interested to see how both unlabeled compounds perform in competition experiments with BH267.meta-DY647 as a probe. The identical PfFNT-GFP membrane preparation as in the previous experiment was incubated with BH267.meta-DY647 at a concentration of 70 nM to allow for complex formation. Different amounts of competitors BH296 and BH267.meta were added to the interaction at concentrations ranging from 10 pM to 10 µM and incubated at room temperature for 1 h to allow the interaction to reach equilibrium. […] A significant amount of 20% of complex remained intact, independent of competitor concentration and incubation time. This finding is of interest because it mirrors the behavior of BH296-DY647 in saturation binding assays, where a subfraction of target appeared incapable of binding to the more space-occupying BH296 (Figure 4d, Table 2).
FCCS measurements were conducted in 384-well glass-bottom plates (cat. no PS96B-G175, SWISSCI, Switzerland) using an Insight plate reader (Evotec Technologies, Germany) fitted with a U-Apo300 40x water immersion lens, NA 1.15 (Olympus, Japan). The 488 nm laser line of an argon-ion laser and the light of a 633 nm helium–neon laser were used for excitation. Fluorescence fluctuations were recorded for 8 s with 12 repetitions and analyzed afterward using FCS+plus Analyze 1.1P (Evotec technologies, Version 1.2.5g). FCCS analysis was carried out as described previously. Briefly, for measuring the dissociation constant (KD), a titration series of 12 dilutions was prepared, where the concentration of the lysates obtained from HEK cells expressing GFP-fusions of PfFNT WT and G107S was kept constant, and the concentration of the labeled binding partner (BH296-DY647 and BH267.meta-DY647, respectively) was varied. The IC50 values were calculated by plotting the concentration from the dual labeled complex against the concentration of the competitor titrated over a concentration range from 10 µM to 10 pM. Samples were incubated for 1 h at room temperature prior to FCCS measurements to allow the formation of drug target complexes. From the resulting IC50 values, the Ki values were obtained by application of the Cheng Prusoff equation [17]. To assess the rate constants, time-resolved measurements were carried out at different concentrations of the labeled ligand. […] All KD and IC50 values, as well as kinetic parameters, were determined from three independently repeated experiments. The figures show one representative measurement; however, the calculated KD, Ki, kon and koff values are presented as an average of the three measurements ± SD. Error bars denote ± SEM.

T2 sequence (O77389 whole entry G107S, the tested form may be a part): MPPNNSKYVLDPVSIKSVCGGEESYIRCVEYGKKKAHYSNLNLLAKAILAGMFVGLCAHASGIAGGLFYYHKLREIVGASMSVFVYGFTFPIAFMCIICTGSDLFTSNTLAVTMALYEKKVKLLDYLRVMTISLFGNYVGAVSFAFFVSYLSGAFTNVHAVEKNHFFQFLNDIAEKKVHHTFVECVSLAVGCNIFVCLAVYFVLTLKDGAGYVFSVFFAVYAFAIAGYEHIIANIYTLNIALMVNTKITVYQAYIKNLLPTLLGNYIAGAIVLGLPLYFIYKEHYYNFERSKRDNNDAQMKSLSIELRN
T3 sequence (O77389 whole entry, the tested form may be a part): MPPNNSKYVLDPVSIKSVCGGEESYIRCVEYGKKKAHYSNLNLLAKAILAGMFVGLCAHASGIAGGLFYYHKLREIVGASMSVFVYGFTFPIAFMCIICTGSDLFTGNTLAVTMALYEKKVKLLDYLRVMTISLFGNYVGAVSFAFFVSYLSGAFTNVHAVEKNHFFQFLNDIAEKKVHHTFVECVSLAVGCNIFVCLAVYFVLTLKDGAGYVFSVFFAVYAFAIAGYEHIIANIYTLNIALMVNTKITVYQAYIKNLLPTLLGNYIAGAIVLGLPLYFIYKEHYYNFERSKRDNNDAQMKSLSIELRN
T1 sequence (O77389 whole entry, the tested form may be a part): as above

Row | Compound | co-localization / membrane localization (PfFNT-GFP) | co-localization / membrane localization (PfFNT G107S-GFP) | complex formed in the absence of a competitor (PfFNT wt-GFP; 10 nM PfFNT-GFP) | competition of BH267.meta-DY647 membrane localization by unlabeled compound (PfFNT G107S-GFP) | Ki (PfFNT wt-GFP; fluorescent probe BH267.meta-DY647 70 nM, 1 h room temperature, read-out: Ki Competitor (converted)) | Ki (PfFNT wt-GFP; fluorescent probe BH296-DY647 70 nM, 10 nM PfFNT-GFP, read-out: Ki Competitor (converted)) | competition of labeled tracer binding by unlabeled compound (PfFNT-GFP; preincubation with 100 µM unlabeled compound, tracer BH296-DY647) | Ki (PfFNT wt-GFP; Ki Competitor, fluorescent probe BH267.meta-DY647 70 nM, 1 h room temperature) | Ki (PfFNT wt-GFP; Ki Competitor, fluorescent probe BH296-DY647 70 nM, 10 nM PfFNT-GFP) | complex remaining intact after competition (PfFNT wt-GFP; tracer BH267.meta-DY647, independent of competitor concentration and incubation time) | co-localization / binding at plasma membrane (PfFNT-GFP; 50 nM probe, absence of Triton X-100, up to 1 h)
1 | CCN1/C(=C/C=C/C=C/C2=[N+](CC)c3ccc(S(=O)(=O)O)cc3C2(C)CCCC(=O)NCCOCCOCCOCCOCCC(=O)NCCCOc2ccc(C(=O)/C=C(\O)C(F)(F)C(F)(F)F)cn2)C(C)(C)c2cc(S(=O)(=O)[O-])ccc21 (stereo not shown) [BH267.meta-DY647] | localizes with PfFNT wildtype | co-localizes; also recorded: clear membrane stain | 3 nM | – | – | – | – | – | – | – | –
2 | O=C(/C=C(\O)C(F)(F)C(F)(F)F)c1cccnc1 [BH267.meta] | binds efficiently | – | – | prevents membrane localization; also recorded: could be competed | 56 nM | 66 ± 6 nM | – | – | – | – | –
3 | O=C(C=C(O)C(F)(F)C(F)(F)F)c1ccc(O)cc1 [BH296, 4,4,5,5,5-pentafluoro-3-hydroxy-1-(4-hydroxyphenyl)pent-2-en-1-one] | – | did not localize to membranes | – | cannot compete | – | – | prevented binding of the labeled tracer; also recorded: completely abrogated binding | 47 nM | 48 ± 2 nM | 20% | –
4 | CCN1/C(=C/C=C/C=C/C2=[N+](CC)c3ccc(S(=O)(=O)O)cc3C2(C)CCCC(=O)NCCOCCOCCOCCOCCC(=O)NCCCOc2ccc(C(=O)/C=C(\O)C(F)(F)C(F)(F)F)cc2)C(C)(C)c2cc(S(=O)(=O)[O-])ccc21 (stereo not shown) [BH296-DY647] | clearly visible | – | 1.5 nM | – | – | – | – | – | – | – | No co-localization; also recorded: could not be observed
